# Source: patent publication US20260191845A1, “PYRIDINE-2-THIOL 1-OXIDE DERIVATIVES AND THEIR USE FOR TREATMENT OF MAMMALIAN INFECTIONS CAUSED BY MYCOBACTERIUM OR FUNGI” (priority 2022, published 2026)
# “And” between values parts separate entries of the source, which are not always exact repeats. Equal entries are not always repeated.
# Columns and labels:
# [1] = system: M. abscessus MDR clinical isolate 1; assay: REMA MIC90, broad spectrum of microorganisms; assay type: cell-based; details: Mycobacteroides abscessus, M. abscessus MDR clinical isolate 1, resistant to amikacin, clarithromycin, doxycycline, bedaquiline and others, read-out: MIC to Compound 2
# Method: (§1) To determine the in vitro activity of compounds (MIC90) against Mycobacterium abscessus ATCC 19977, the resazurin reduction microplate assays (REMA) is performed. Briefly, serial 2-fold dilutions of drug are prepared in 96-well microtiter plates (Fluoronunc, Thermo Fisher, Waltham, MA, USA) in 100 μL of Middlebrook 7H9 medium (Difco), supplemented with 10% OADC without addition of Tween 80. Then, M. abscessus log-phase cultures were diluted (OD600=0.02) and added in the 96-well microtiter plate. Growth controls containing no compound and sterile controls without inoculum are also included. Also, a compound known to be active against M. abscessus growth is included as positive control. After 1 day of incubation at 37° C., 10 μL of resazurin (0.025% w/v) is added to each well, and bacterial viability is assessed after a further 24 h of incubation using a Fluoroskan™ Microplate Fluorometer (Thermo Fisher Scientific, Waltham, MA, USA; excitation=544 nm, emission=590 nm). Bacterial viability was calculated as a percentage of resazurin turnover in the absence of compound (MIC90). […]. Results are expressed as the average of at least three independent replicates and presented on the following Table 1.
# (§2) By using the same procedure, the compound according to Example B (compound 2) was tested on broad spectrum of microorganisms and the corresponding results are presented in the below Table 2.
# [2] = system: M. abscessus MDR clinical isolate 2 (from CF patient); assay: REMA MIC90, broad spectrum of microorganisms; assay type: cell-based; details: Mycobacteroides abscessus, resistant to amikacin, amoxicillin, imipenem, linezolid and others, read-out: MIC to Compound 2
# Method: as §1, §2
# [3] = system: M. abscessus clinical isolate n. 10; assay: REMA MIC90, broad spectrum of microorganisms; assay type: cell-based; details: Mycobacteroides abscessus, M. abscessus clinical isolate n. 10, resistant to moxifloxacin, doxycycline, read-out: MIC to Compound 2
# Method: as §1, §2
# [4] = system: M. abscessus clinical isolate n. 6; assay: REMA MIC90, broad spectrum of microorganisms; assay type: cell-based; details: Mycobacteroides abscessus, M. abscessus clinical isolate n. 6, resistant to clarithromycin, moxifloxacin, doxycycline, linezolid, read-out: MIC to Compound 2
# Method: as §1, §2
# [5] = system: M. abscessus clinical isolate n. 7; assay: REMA MIC90, broad spectrum of microorganisms; assay type: cell-based; details: Mycobacteroides abscessus, M. abscessus clinical isolate n. 7, resistant to clarithromycin, amikacin, moxifloxacin, doxycycline, read-out: MIC to Compound 2
# Method: as §1, §2
# [6] = system: M. abscessus clinical isolate n. 8; assay: REMA MIC90, broad spectrum of microorganisms; assay type: cell-based; details: Mycobacteroides abscessus, M. abscessus clinical isolate n. 8, resistant to moxifloxacin, doxycycline, read-out: MIC to Compound 2
# Method: as §1, §2
# [7] = system: M. abscessus clinical isolate n. 9; assay: REMA MIC90, broad spectrum of microorganisms; assay type: cell-based; details: Mycobacteroides abscessus, M. abscessus clinical isolate n. 9, resistant to clarithromycin, moxifloxacin, doxycycline, read-out: MIC to Compound 2
# Method: as §1, §2
# [8] = system: M. avium clinical isolate n. 1; assay: REMA MIC90, broad spectrum of microorganisms; assay type: cell-based; details: Mycobacterium avium, M. avium clinical isolate n. 1, resistant to linezolid, read-out: MIC to Compound 2
# Method: as §1, §2
# [9] = system: M. avium clinical isolate n. 2; assay: REMA MIC90, broad spectrum of microorganisms; assay type: cell-based; details: Mycobacterium avium, M. avium clinical isolate n. 2, resistant to linezolid, read-out: MIC to Compound 2
# Method: as §1, §2
# [10] = system: M. avium clinical isolate n. 3; assay: REMA MIC90, broad spectrum of microorganisms; assay type: cell-based; details: Mycobacterium avium, M. avium clinical isolate n. 3, resistant to linezolid, read-out: MIC to Compound 2
# Method: as §1, §2
# [11] = system: M. avium clinical isolate n. 4; assay: REMA MIC90, broad spectrum of microorganisms; assay type: cell-based; details: Mycobacterium avium, M. avium clinical isolate n. 4, resistant to linezolid and Moxifloxacin, read-out: MIC to Compound 2
# Method: as §1, §2
# [12] = system: MRSA Staphylococcus aureus clinical isolate; assay: REMA MIC90, broad spectrum of microorganisms; assay type: cell-based; details: read-out: MIC to Compound 2
# Method: as §1, §2
# M. smegmatis mc2155 = assay: REMA MIC90, broad spectrum of microorganisms; assay type: cell-based; details: Mycolicibacterium smegmatis, M. smegmatis mc2155, Wild-type, read-out: MIC to Compound 2
# [13] = Subacute toxicity, 14 days per oral administration in mice; assay type: in vivo
# Method: Acute and subacute toxicity of compound 2 was experimentally studied for intragastric administration in white mice. […] The compound was solubilized in saline to be administrated to animals.
# Evaluation of subacute toxicity of compound 2 observation time after 14 days per oral administration.
# Experimental animals: 14 C57BL/6 male white mice, 7 weeks old, weight 20-22 g.
# The following experimental procedure was used: • administration route of the compound: per os; • dosage 50 mg/kg once a day for 14 days; • volume introduced into 0.3 ml/20 g (15 ml/kg); • data recorded: behavior, weight changes, rectal temperature, mortality.
# [14] = Pharmacokinetic study in mice; assay type: in vivo, Balb/C male mice; details: 100 mg/kg intragastric, saline solution
# Method: The pharmacokinetics of the compound 2 has been studied white Balb/C male mice. 27 animals with average body weight of 20 g were selected for the study. The animals were kept on standard vivarium ration with dry pelleted feed before the experiment. All the test animals had free access to water but were deprived of food for 1 hour before administration of the compound. This regimen was continued for another hour after the administration.
# Compound in a dose of 100 mg/kg of body weight was administered as 0.5 mL of saline solution by intragastric intubation.
# The animals were euthanized by decapitation for blood and brain sampling. Blood and brain samples (3 animals per time point) were taken at 15, 30, 60, 120, 240, 360 1440 min after administration for pharmacokinetic evaluation. Blood was collected in heparinized tubes and centrifuged at 3500 RPM. Plasma was separated from formed elements and immediately frozen at −20° C. in freezer. This storage continued before transferring of plasma for analysis. Serum from 6 untreated animals was used as control and for equipment calibration with compound. Mice brain was immediately frozen at −120° C.
# Candida albicans H8 = assay: Antifungal agar well diffusion assay; details: 20 μL water solution in 4 mm well
# Method: (§3) The well diffusion test was performed using Casitone agar. The inoculum used was prepared using the Candida or Aspergillus strains from a 24-hour culture on Sabouraud dextrose agar, a suspension was made in a sterile saline solution (0.85%). The turbidity of the suspension was adjusted with a spectrophotometer at 530 nm to obtain a final concentration to match that of a 0.5 McFarland standard (0.5-2.5×10^3). 20 mL of Bacto-casitone were melted, cooled to 55° C. and then inoculated with 1 mL of the organism suspension. The inoculated agar was poured into the assay plate (9 cm in diameter) and allowed to cool down on a leveled surface.
# Penicillium notatum = assay: Antifungal agar well diffusion assay; details: 20 μL water solution in 4 mm well
# Method: as §3
# [15] = mice, per os, 50 mg/kg once a day for 14 days
smiles,measurement,setting,value
"CCOC(=O)c1ccc([S-])[n+]([O-])c1.[Na+] [Compound 2, Sodium 5-(ethoxycarbonyl)pyridine-2-thiolate 1-oxide]",MIC,[1],500 µg/mL
same,MIC,[2],500 µg/mL
same,MIC,[3],500 µg/mL
same,MIC,[4],500 µg/mL
same,MIC,[5],500 µg/mL
same,MIC,[6],500 µg/mL
same,MIC,[7],500 µg/mL
same,MIC,[8],500 µg/mL
same,MIC,[9],500 µg/mL
same,MIC,[10],500 µg/mL
same,MIC,[11],500 µg/mL
same,MIC,[12],8000 µg/mL
same,MIC,M. smegmatis mc2155,1000 µg/mL
same,"Weight of mice, Experimental group, 28 Jan. 2021, M ± m","[13]; group mean, after 14 days of 50 mg/kg per os daily",21.13 ± 0.308 gramm
same,"Weight of mice, Experimental group, 13 Jan. 2021, M ± m","[13]; group mean, start of 50 mg/kg per os daily treatment",20.71 ± 0.4 gramm
same,"Weight of individual mice, Experimental group, 28 Jan. 2021","[13]; individual mice, after 14 days of 50 mg/kg per os daily, 50 mg/kg",21.1 gramm and 19.5 gramm and 20.9 gramm and 21.7 gramm and 21.5 gramm (2×) and 22.4 gramm and 20.5 gramm
same,"Weight of individual mice, Experimental group, 13 Jan. 2021","[13]; individual mice, start of 50 mg/kg per os daily treatment, 50 mg/kg",20.1 gramm and 22.1 gramm and 19.2 gramm and 19.7 gramm and 20.9 gramm and 20.5 gramm and 22.8 gramm and 20.4 gramm
same,Subacute toxicity: general state and behavior,[13]; [15],did not cause changes in the general state and behavior of the mice
same,"Subacute toxicity: mass of mice, experimental vs control group",[13]; [15],No significant differences
same,Subacute toxicity: animal death,"[13]; mouse, in vivo, 50 mg/kg",there were no cases of animal death
same,Bioavailability,[14],high bioavailability
same,Inhibition Zone of Test Microorganism,Candida albicans H8,53 mm
same,Inhibition Zone of Test Microorganism,Penicillium notatum,15 mm
